# Where a name gives a salt, the structure may show the parent alone.
# Columns and labels:
# [1] = system: CMV-induced inflammation in the eye; assay: Valganciclovir hydrochloride ophthalmic ointments tested in a patient with CMV-induced inflammation in the eye (Example 4); format: in vivo, human; settings: topical ophthalmic ointment, 1% w/w and 5% w/w, one patient
# Description: The 1% w/w and 5% w/w valganciclovir hydrochloride ophthalmic ointments were tested in a patient with CMV-induced inflammation in the eye.
# [2] = system: hypertensive anterior uveitis associated with clinical signs of cytomegalovirus (CMV) iritis; assay: Case report: topical valganciclovir for hypertensive anterior uveitis with clinical signs of CMV iritis (Example 5); format: in vivo, human
# Description: Valganciclovir was extracted from the tablet form (450 mg, Valcyte, Roche). Briefly, tablets were dissolved in 0.001N HCl (2 ml per tablet), the insoluble excipients were isolated by centrifugation at 16,000 g, the solution was then filtered through 0.2 μm filter into ice-cold isopropanol (20 ml per tablet) leading to precipitation of the valganciclovir. The precipitate was spun down at 3,000 g, isopropanol was decanted and remaining volatile solvents were removed in the lyophilizer. The identity of valganciclovir was confirmed by liquid chromatography-mass spectrometry (LC-MS). 1% (w/w) valganciclovir ointment in the oleaginous base (20% mineral oil and 80% white petrolatum) was made by following standard compounding practices.
# The patient was referred to us […] with chronic low-grade iritis and IOPs that were not adequately managed with medications (prednisolone acetate, brimonidine, and dorzolamide/timolol). Based on the history, pattern of keratic precipitates, mild anterior chamber inflammation, iris atrophy and elevated IOP (25 mmHg in the right eye and 16 mmHg in the left eye) CMV iritis was suspected. […]. PCR of the aqueous was negative for CMV, herpes simplex virus (HSV), and varicella-zoster virus (VZV) DNA.^6 However, because we had previously observed false negative PCR results in a substantial proportion of eyes suspected to have CMV iritis on clinical grounds, we decided to start a course of oral valganciclovir (900 mg twice daily). Within six weeks their IOP returned to normal levels and after 3 months all keratic precipitates completely resolved.
# Nine months after the start of valganciclovir therapy, valganciclovir was discontinued and twice daily ganciclovir gel, 0.15%, was started. […] The patient refused to restart oral valganciclovir due to concerns about the toxicity of systemic valganciclovir, and continued with ganciclovir gel, topical corticosteroids, and topical anti-hypertensives.
# At this same time, the patient began treating their condition with self-compounded topical valganciclovir. They initially wore a contact lens soaked overnight in 5% valganciclovir and later formulated 5% valganciclovir eye drops, which they administered 2-4 times per day. With this approach the patient's ocular inflammation and IOP improved and surgery was postponed, but the patient still required topical corticosteroids and topical anti-hypertensive medications. After 3 years of controlled inflammation on valganciclovir eye drops, the patient became concerned about medication stability and began formulating 1% valganciclovir ointment in an oleaginous base (80% white petrolatum and 20% mineral oil). […] With long-term use of topical valganciclovir ointment, the patient was able to taper off topical corticosteroids and topical anti-hypertensives and has remained stable since then (9 months).
smiles,measurement,setting,value
"CC(C)[C@H](N)C(=O)OCC(CO)OCn1cnc2c(=O)nc(N)[nH]c21 (stereo partly drawn) [valganciclovir, valganciclovir hydrochloride]",control of the inflammation and lowering of the intraocular pressure,[1],effectiveness
same,ocular inflammation and intraocular pressure,[2]; oral valganciclovir together with topical corticosteroids,ocular inflammation resolved and intraocular pressure normalized
same,disease status after dose reduction,"[2]; oral, 450 mg twice daily",the disease remained quiet
same,leukopenia (complete blood counts tested periodically),"[2]; oral, 900 mg twice daily",no leukopenia developed
same,time until IOP returned to normal levels,"[2]; oral, 900 mg twice daily",six
same,time until all keratic precipitates completely resolved,"[2]; oral, 900 mg twice daily",3 months

# Source: patent US20160095861A1, “OPHTHALMIC OINTMENTS COMPRISING VALGANCICLOVIR HYDROCHLORIDE FOR TREATING INFECTIVE EYE DISEASES” (SKIRON BIOSCIENCES, priority 2014, published 2016)
